# In ChEMBL document CHEMBL5360663, “Discovery of a Novel Photocaged PI3K Inhibitor Capable of Real-Time Reporting of Drug Release” (ACS Med Chem Lett, 2023):
# Activity calls are given as the source filed them. The calls are words filed in the database; no cut-off is given here.
# Assays:
# HGC-27 [1] = test: Antiproliferative activity against human HGC-27 cells assessed as inhibition of cell growth measured after 72 hrs by CTG assay; assay type: functional, cell-based; settings: HGC-27, 72 h
# U-87 MG [2] = test: Antiproliferative activity against human U-87 MG cells assessed as inhibition of cell growth measured after 72 hrs by CTG assay; assay type: functional, cell-based, U-87MG ATCC
# HGC-27 [3] = test: Inhibition of colony formation in human HGC-27 cells at 10 nM pre-treated with compound followed by UV irradiation for 5 mins measured after 3 days by crystal violet staining based analysis; assay type: functional, cell-based; settings: time 4325.0 min
# SK-MEL-2 [4] = test: Antiproliferative activity against human SK-MEL-2 cells assessed as inhibition of cell growth measured after 72 hrs by CTG assay; assay type: functional, cell-based; settings: SK-MEL-2, 72 h
# [5] = Antiproliferative activity against human U373 cells assessed as inhibition of cell growth measured after 72 hrs by CTG assay; assay type: functional, cell-based; settings: U373 MG
# SK-MEL-5 [6] = test: Antiproliferative activity against human SK-MEL-5 cells assessed as inhibition of cell growth measured after 72 hrs by CTG assay; assay type: functional, cell-based; settings: SK-MEL-5, 72 h
# MCF7 [7] = test: Antiproliferative activity against human MCF7 cells assessed as inhibition of cell growth measured after 72 hrs by CTG assay; assay type: functional, cell-based; settings: MCF7, 72 h
# HGC-27 [8] = test: Inhibition of PI3K in human HGC-27 cells assessed as reduction in S6RP phosphorylation at S240 and 244 residue at 10 nM pre-treated with compound followed by UV irradiation for 5 mins measured after 24 hrs by Western blotting analysis; assay type: cell-based; settings: time 1445.0 min
# [9] = target: Phosphatidylinositol 4,5-bisphosphate 3-kinase catalytic subunit alpha isoform (Homo sapiens, UniProt P42336); test: Inhibition of PI3Kalpha (unknown origin) using PIP2 as substrate in presence of ATP by Kinase-Glo assay
# HGC-27 [10] = test: Inhibition of PI3K in human HGC-27 cells assessed as reduction in AKT phosphorylation at S473 residue at 10 nM pre-treated with compound followed by UV irradiation for 5 mins measured after 24 hrs by Western blotting analysis; assay type: cell-based; settings: time 1445.0 min
# [11] = Selectivity ratio of IC50 for antiproliferative activity against human SK-MEL-5 cells to IC50 for antiproliferative activity against human SK-MEL-5 cells in presence of UV irradiation; assay type: functional
# SK-MEL-5 [12] = test: Antiproliferative activity against human SK-MEL-5 cells assessed as inhibition of cell growth pre-treated with compound followed by UV irradiation for 5 mins measured after 72 hrs by CTG assay; assay type: functional, cell-based; settings: SK-MEL-5, light or radiation study
# HGC-27 [13] = test: Photorelease activity in human HGC-27 cells assessed as release of 7-hydroxy-3-(hydroxymethyl)-2H-chromen-2-one incubated for 2 hrs in presence of UV irradiation by confocal microscopic analysis; assay type: ADME, cell-based; settings: hgc-27, 2 h, dose 1-10 µM
# [14] = Selectivity ratio of IC50 for antiproliferative activity against human U373 cells to IC50 for antiproliferative activity against human U373 cells in presence of UV irradiation; assay type: functional
# HGC-27 [15] = test: Antiproliferative activity against human HGC-27 cells assessed as inhibition of cell growth pre-treated with compound followed by UV irradiation for 5 mins measured after 72 hrs by CTG assay; assay type: functional, cell-based; settings: HGC-27, light or radiation study
# HGC-27 [16] = test: Photorelease activity in human HGC-27 cells assessed as increase in intracellular fluorescence intensity incubated for 2 hrs in presence of UV irradiation for 5 to 30 mins by fluorescence based microplate reader analysis; assay type: ADME, cell-based; settings: hgc-27, 2 h, dose 0.4-10 µM
# [17] = Selectivity ratio of IC50 for antiproliferative activity against human U-87 MG cells to IC50 for antiproliferative activity against human U-87 MG cells in presence of UV irradiation; assay type: functional, U-87MG ATCC
# MCF7 [18] = test: Antiproliferative activity against human MCF7 cells assessed as inhibition of cell growth pre-treated with compound followed by UV irradiation for 5 mins measured after 72 hrs by CTG assay; assay type: functional, cell-based; settings: MCF7, light or radiation study
# HGC-27 [19] = test: Photorelease activity in human HGC-27 cells assessed as increase in intracellular fluorescence intensity at 0.4 to 10 uM incubated for 2 hrs in presence of UV irradiation for 5 to 30 mins by fluorescence based microplate reader analysis; assay type: ADME, cell-based; settings: hgc-27, 2 h, TDE = time-dependent effect, dose 0.4-10 µM
# [20] = Selectivity ratio of IC50 for antiproliferative activity against human HGC-27 cells to IC50 for antiproliferative activity against human HGC-27 cells in presence of UV irradiation; assay type: functional
# [21] = Antiproliferative activity against human U373 cells assessed as inhibition of cell growth pre-treated with compound followed by UV irradiation for 5 mins measured after 72 hrs by CTG assay; assay type: functional, cell-based; settings: U373 MG, light or radiation study
# [22] = Selectivity ratio of IC50 for antiproliferative activity against human MCF7 cells to IC50 for antiproliferative activity against human MCF7 cells in presence of UV irradiation; assay type: toxicity, cell-based; settings: read-out: Ratio IC50
# HGC-27 [23] = test: Photorelease activity in human HGC-27 cells assessed as release of 7-hydroxy-3-(hydroxymethyl)-2H-chromen-2-one incubated for 2 hrs by confocal microscopic analysis; assay type: ADME, cell-based; settings: hgc-27, 2 h
# [24] = Selectivity ratio of IC50 for antiproliferative activity against human SK-MEL-2 cells to IC50 for antiproliferative activity against human SK-MEL-2 cells in presence of UV irradiation; assay type: functional
# U-87 MG [25] = test: Antiproliferative activity against human U-87 MG cells assessed as inhibition of cell growth pre-treated with compound followed by UV irradiation for 5 mins measured after 72 hrs by CTG assay; assay type: functional, cell-based, U-87MG ATCC; settings: light or radiation study
# SK-MEL-2 [26] = test: Antiproliferative activity against human SK-MEL-2 cells assessed as inhibition of cell growth pre-treated with compound followed by UV irradiation for 5 mins measured after 72 hrs by CTG assay; assay type: functional, cell-based; settings: SK-MEL-2, light or radiation study
# Chain of Phosphatidylinositol 4,5-bisphosphate 3-kinase catalytic subunit alpha isoform (P42336 whole entry, canonical isoform): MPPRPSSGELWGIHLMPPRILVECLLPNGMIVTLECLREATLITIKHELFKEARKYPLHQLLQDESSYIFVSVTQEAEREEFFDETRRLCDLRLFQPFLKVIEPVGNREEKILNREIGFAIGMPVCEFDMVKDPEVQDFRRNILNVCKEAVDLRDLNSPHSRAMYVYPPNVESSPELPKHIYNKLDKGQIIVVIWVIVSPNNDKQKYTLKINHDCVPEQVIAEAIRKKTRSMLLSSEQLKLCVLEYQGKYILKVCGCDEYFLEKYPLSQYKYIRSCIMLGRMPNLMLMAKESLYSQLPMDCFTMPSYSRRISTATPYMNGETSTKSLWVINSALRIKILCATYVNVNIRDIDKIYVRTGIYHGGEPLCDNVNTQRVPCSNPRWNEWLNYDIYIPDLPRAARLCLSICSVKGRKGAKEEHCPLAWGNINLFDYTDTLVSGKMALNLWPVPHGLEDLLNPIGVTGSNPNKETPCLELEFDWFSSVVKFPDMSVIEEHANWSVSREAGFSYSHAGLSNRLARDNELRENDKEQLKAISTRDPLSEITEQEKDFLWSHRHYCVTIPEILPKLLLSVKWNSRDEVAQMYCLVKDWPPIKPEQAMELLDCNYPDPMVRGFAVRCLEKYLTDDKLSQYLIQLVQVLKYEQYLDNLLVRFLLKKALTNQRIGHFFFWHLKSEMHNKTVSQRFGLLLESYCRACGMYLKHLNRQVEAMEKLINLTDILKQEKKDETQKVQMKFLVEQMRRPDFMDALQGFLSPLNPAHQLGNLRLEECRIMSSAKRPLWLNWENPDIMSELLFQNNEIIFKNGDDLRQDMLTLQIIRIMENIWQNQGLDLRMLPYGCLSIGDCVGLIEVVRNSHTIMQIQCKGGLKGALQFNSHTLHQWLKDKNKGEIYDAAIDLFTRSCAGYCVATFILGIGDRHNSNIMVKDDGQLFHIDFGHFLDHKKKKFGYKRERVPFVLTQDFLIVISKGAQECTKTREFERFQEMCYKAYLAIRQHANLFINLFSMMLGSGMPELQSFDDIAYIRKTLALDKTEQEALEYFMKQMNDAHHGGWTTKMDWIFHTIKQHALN
IC50 (U-87 MG [2]) [µM],IC50 (SK-MEL-2 [4]) [µM],IC50 (SK-MEL-5 [6]) [µM],IC50 (MCF7 [7]) [µM],IC50 [9] [µM],SMILES,IC50 (HGC-27 [1]) [µM],Activity (HGC-27 [3]),IC50 [5] [µM],inhibition (HGC-27 [8]),inhibition (HGC-27 [10]),further results
0.05,0.19,0.065,0.282,0.00017,COc1ncc(-c2cc(OC3CCOCC3)c3ncnc(C)c3c2)cc1NS(=O)(=O)c1ccc(F)cc1F,0.0018,Active,0.057,Active,Active,
3.26,2.81,6.56,> 10,0.0189,COc1cc(COc2ccc3cc(CN(c4cc(-c5cc(OC6CCOCC6)c6ncnc(C)c6c5)cnc4OC)S(=O)(=O)c4ccc(F)cc4F)c(=O)oc3c2)c([N+](=O)[O-])cc1OC,0.701,Active,> 10,Active,Active,Ratio IC50 [11]: 15; IC50 (SK-MEL-5 [12]): 0.434 µM; Activity (HGC-27 [13]): Dose-Dependent Effect; Ratio IC50 [14]: >217; IC50 (HGC-27 [15]): 0.0037 µM; Activity (HGC-27 [16]): Dose-Dependent Effect; Ratio IC50 [17]: 63; IC50 (MCF7 [18]): 0.428 µM; Activity (HGC-27 [19]): Tde; Ratio IC50 [20]: 189; IC50 [21]: 0.046 µM; selectivity ratio [22]: > 23; Activity (HGC-27 [23]): Not Active; Ratio IC50 [24]: 20; IC50 (U-87 MG [25]): 0.052 µM; IC50 (SK-MEL-2 [26]): 0.143 µM
0.011,0.13,0.19,0.295,0.00207,COc1ncc(-c2cc(OC3CCOCC3)c3ncnc(C)c3c2)cc1N(Cc1cc2ccc(O)cc2oc1=O)S(=O)(=O)c1ccc(F)cc1F,0.0039,Active,0.025,Active,Active,
